The results in this text go back to patent US12274732B2, “Anti-pathogen composition and methods of use thereof” (Tenfold Technologies, LLC, priority 2017, dated 2025).

For one data set, the system named is Aspergillus fumigatus. In words: In vitro antimicrobial activity against Aspergillus fumigatus. It is filed as cell-based. The method, then: (§1) Fifty organic extracts were prepared from 25 whole broth of four microbial strains (MS1479, MS2379, MS2820, and MS2414), which were fermented in different media for the antimicrobial testing. Note each whole broth culture generated one n-butanol extract from cultural supernatant and one methanol extract from cell pellets.
(§2) The antimicrobial activities of the 50 organic extracts were studied against three fungal pathogens—Candida albicans, Aspergillus fumigatus, and Cryptococcus neoformans—and five bacterial strains-Methicillin-resistant Staphylococcus aureus (MIRSA), Escherichia coli, Pseudomonas aeruginosa, Klebsiella pneumoniae, and Vancomycin-resistant Enterococcus faecium (VRE) (FIG. 2). The test concentrations for all extracts were in the range of 8-200 μg/mL (Table 3).
(§3) The antimicrobial activities of identified fusaricidins were in an in vitro study against several clinically relevant microbes. […] For the in-vitro assays against bacteria, fusaricidins were tested against methicillin-resistant Staphylococcus aureus, vancomycin-resistant Enterococcus faecium, Escherichia coli, and Pseudomonas aeruginosa using four antibacterial drugs methicillin, vancomycin, cefotaxime, and meropenem as controls. […] Fusaricidins were also tested against fungal pathogens Cryptococcus neoformans, Candida albicans, and Aspergillus fumigatus and compared with two antifungal drugs, fluconazole and amphotericin B (Table 13). Moreover, the anti-parasitic activity was also tested against L. donovani and T. brucei (Table 14).

Data set [1] concerns Methicillin-resistant Staphylococcus aureus (MRSA). In words: In vitro antimicrobial activity against MRSA. The format is cell-based. The method, then:
as §1, §2, §3

For another data set, the system named is L. donovani. Description: In-vitro antiparasitic activity against L. donovani. It is filed as cell-based. As for the experimental part:
as §3

A further data set deals with Pseudomonas aeruginosa. In words: In vitro antimicrobial activity against Pseudomonas aeruginosa. It is filed as cell-based. As for the experimental part:
as §1, §2, §3

For another data set, the system named is Escherichia coli. Description: In vitro antimicrobial activity against Escherichia coli. It is filed as cell-based. The method, then:
as §1, §2, §3

The subject of the next data set is THP-1. In words: Cytotoxicity against THP-1 cells (counter-screen of the antiparasitic assays). The format is cell-based. The method, then: as §3
Another data set relates to Candida albicans. Description: In vitro antimicrobial activity against Candida albicans. It is filed as cell-based. The method, then: as §1, §2, §3
Data set [2] relates to Vancomycin-resistant Enterococcus faecium (VRE). In words: In vitro antimicrobial activity against VRE. It is filed as cell-based. The method, then:
as §1, §2, §3

In a further data set the test system is Klebsiella pneumoniae. In words: In vitro antimicrobial activity against Klebsiella pneumoniae. It is filed as cell-based. The following applies: test conc. 200-8 μg/mL (extracts), 100-4 or 10-0.4 μg/mL (drugs). The method, then:
as §1, §2

Another data set concerns Cryptococcus neoformans. Description: In vitro antimicrobial activity against Cryptococcus neoformans. It is filed as cell-based. The method, then:
as §1, §2
The potent activities against the fungal pathogen C. neoformans and the gram-positive bacteria S. aureus, MRSA, and M. intracellulare were also shown in the crude extracts (FIG. 7).
as §3

Data set [3] in a line: Heat stability of fusaricidins, whole broth autoclaved. It is filed as physicochemical. The following applies: fermentation whole broth autoclaved at 121.5° C. for 30 minutes. The method, then:
In order to test the heat stability of fusaricidins, the fermentation whole broth was autoclaved at 121.5° C. for 30 minutes. Fusaricidin contents were analyzed before and after autoclave. Without being bound by a theory, fusaricidin A is heat stable because significant amounts of fusaricidin A were detected after the harsh heat treatment in most cases (FIG. 3B).

[4] abbreviates: Table 5, extracts tested at 8-200 μg/mL.
Where [5] appears, read: Table 12, highest test conc. fusaricidins 20, controls 100 μg/mL.
Where [6] appears, read: Table 12, lowest concentration that allows no detectable growth.
[7] abbreviates: test conc. 200-8 μg/mL (extracts), 100-4 or 10-0.4 μg/mL (drugs).

SMILES strings stand for the structures. Converted amounts (≈) assume the structure as drawn. Read-outs that look alike come from different tables or passages of the source. Positions of bridges follow the written chain, without caps; N, C: chain ends. Non-standard residues stand in square brackets, D forms with d. Residues, ends and D or L forms follow the SMILES beside them. ξ: configuration not given here. *: point of attachment. Pentadecanoyl(3ξ-OH,15-Gua) = N=C(N)NCCCCCCCCCCCCC(O)CC(=O)*; d(aThr) = C[C@@H](O)[C@@H](N)C(=O)O

`C[C@@H]1[C@H](O)[C@@H](C)/C=C/C=C/C=C/C=C/C=C/C=C/C=C/[C@H](O[C@@H]2O[C@H](C)[C@@H](O)[C@H](N)[C@@H]2O)C[C@@H]2O[C@](O)(C[C@@H](O)C[C@@H](O)[C@H](O)CC[C@@H](O)C[C@@H](O)CC(=O)O[C@H]1C)C[C@H](O)[C@H]2C(=O)O` [Amphotericin B]: the “A. fumigatus IC50” value in the data set with Aspergillus fumigatus (setting [4]) and with Aspergillus fumigatus (setting [7]) was 1.407 mg/L each time. Moreover, the “A. fumigatus IC50 (50% growth inhibitory concentration)” value with Aspergillus fumigatus (setting [5]) was determined as 2.4 mg/L. For the same compound, the “A. fumigatus MIC (minimum inhibitory concentration)” value with Aspergillus fumigatus (setting [6]) amounted to 3.1 mg/L. Moreover, the “MRS IC50” value in data set [1] (setting [4]) and in data set [1] (setting [7]) was >100 mg/L throughout. Also, in the data set on L. donovani (amastigote), the “L. donovani Amastigote IC50” value was determined as 0.9 mg/L. For the same compound, the “L. donovani Amastigote/THP IC50” value in the data set on L. donovani (amastigote/THP) is on record as 0.2/0.2 μg/mL. The “L. donovani Amastigote/THP IC90” value with L. donovani (amastigote/THP, 90% inhibitory concentration) was 0.2/0.2 μg/mL. Moreover, the “L. donovani Amastigote IC90” value in the data set on L. donovani (amastigote, 90% inhibitory concentration) was determined as 1.1 mg/L. The “L. donovani Promastigote IC50” value in the data set on L. donovani (promastigote) is 0.3 mg/L. For the same compound, the “L. donovani Promastigote IC90” value with L. donovani (promastigote, 90% inhibitory concentration) was 0.4 mg/L. In the data set with Pseudomonas aeruginosa (setting [7]), the “P. aeruginosa IC50” value is >100 mg/L. The “E. coli IC50” value with Escherichia coli (setting [7]) is >100 mg/L. Moreover, the “THP-1 IC50” value in the data set on THP-1 is >2/>2 μg/mL. For the same compound, in the data set on THP-1 (90% inhibitory concentration), the “THP-1 IC90” value is given as >2/>2 μg/mL. Besides, the “C. albicans IC50” value in the data set on Candida albicans (setting [4]) and in the data set with Candida albicans (setting [7]) was <0.1 mg/L in each case. The “C. albicans IC50 (50% growth inhibitory concentration)” value with Candida albicans (setting [5]) came to 0.4 mg/L. Further, the “C. albicans MIC (minimum inhibitory concentration)” value in the data set on Candida albicans (setting [6]) stood at 0.8 mg/L. In addition, the “VRE IC50” value in data set [2] (setting [4]) and in data set [2] (setting [7]) was >100 mg/L throughout. Also, in the data set with Klebsiella pneumoniae, the “K pneumoniae IC50” value was >100 mg/L. Further, in the data set on Cryptococcus neoformans (Example 4, column fractions of MS2414 extract (FIG. 7)), the “IC50 against C. neoformans” value turned out to be 0.15 mg/L (≈ 0.162 µM). In addition, the “C. neoformans IC50” value in the data set on Cryptococcus neoformans (setting [4]) and with Cryptococcus neoformans (setting [7]) was 0.24 mg/L in each case. Further, in the data set with Cryptococcus neoformans (setting [5]), the “C. neoformans IC50 (50% growth inhibitory concentration)” value was found to be 0.3 mg/L. For the same compound, the “C. neoformans MIC (minimum inhibitory concentration)” value with Cryptococcus neoformans (setting [6]) amounted to 0.4 mg/L.

Consider `CC(C)[C@@H]1NC(=O)[C@@H](C(C)C)NC(=O)[C@@H](NC(=O)CC(O)CCCCCCCCCCCCNC(=N)N)[C@@H](C)OC(=O)[C@@H](C)NC(=O)[C@@H](CC(N)=O)NC(=O)[C@@H]([C@@H](C)O)NC1=O` (stereo partly drawn) [Fusaricidin A] ({Pentadecanoyl(3ξ-OH,15-Gua)}-T[dV]V[d(aThr)][dN][dA]; ester 1-C), for which, in data set [3], the heat stability result is “heat stable”. The “activity against MRSA (in words)” value in data set [1] is “strong activity”. For the same compound, in [2], the “activity against VRE (in words)” value was “strong activity”.

In the case of `C[C@@H](O)[C@H]1C(=O)N2C(C(=O)O)=C(S[C@@H]3CN[C@H](C(=O)N(C)C)C3)[C@H](C)[C@H]12` [Meropenem], the IC50 is > 100 mg/L in the data set with Aspergillus fumigatus (Aspergillus fumigatus, test conc. 200-8 μg/mL (extracts), 100-4 or 10-0.4 μg/mL (drugs), read-out: A. fumigatus IC50); 5.7 mg/L (≈ 14.9 µM) in [1] (ATCC 1708 / MRSA, Table 13, Methicillin-resistant Staphylococcus aureus ATCC 1708, read-out: MRSA IC50 (50% growth inhibitory concentration)); 2.75 mg/L (≈ 7.17 µM) in [1] (Staphylococcus aureus, MRSA, test conc. 200-8 μg/mL (extracts), 100-4 or 10-0.4 μg/mL (drugs), read-out: MRS IC50); 5.9 mg/L (≈ 15.4 µM) with Pseudomonas aeruginosa (ATCC2108, Table 13, Pseudomonas aeruginosa ATCC 2108, read-out: P. aeruginosa IC50 (50% growth inhibitory concentration)); > 100 mg/L with Pseudomonas aeruginosa (Pseudomonas aeruginosa, test conc. 200-8 μg/mL (extracts), 100-4 or 10-0.4 μg/mL (drugs), read-out: P. aeruginosa IC50); 5.4 mg/L (≈ 14.1 µM) with Escherichia coli (ATCC2452, Table 13, Escherichia coli ATCC 2452, read-out: E. coli IC50 (50% growth inhibitory concentration)). Moreover, the IC50 was 11.5 mg/L (≈ 30 µM) with Escherichia coli (Escherichia coli, test conc. 200-8 μg/mL (extracts), 100-4 or 10-0.4 μg/mL (drugs), read-out: E. coli IC50); > 100 mg/L in the data set with Candida albicans (Candida albicans, test conc. 200-8 μg/mL (extracts), 100-4 or 10-0.4 μg/mL (drugs), read-out: C. albicans IC50); > 100 mg/L in [2] (ATCC 700221 / VRE, Table 13, Vancomycin-resistant Enterococcus faecium ATCC 700221, read-out: VRE IC50 (50% growth inhibitory concentration)); > 100 mg/L in [2] (test conc. 200-8 μg/mL (extracts), 100-4 or 10-0.4 μg/mL (drugs), read-out: VRE IC50); 18.1 mg/L (≈ 47.3 µM) in the data set on Klebsiella pneumoniae (Klebsiella pneumoniae, read-out: K pneumoniae IC50); > 100 mg/L in the data set on Cryptococcus neoformans (Cryptococcus neoformans, test conc. 200-8 μg/mL (extracts), 100-4 or 10-0.4 μg/mL (drugs), read-out: C. neoformans IC50). The “A. fumigatus IC50” value with Aspergillus fumigatus (setting [4]) is >100 mg/L. For the same compound, the MIC in [1] (ATCC 1708 / MRSA, Table 13, Methicillin-resistant Staphylococcus aureus ATCC 1708, read-out: MRSA MIC (minimum inhibitory concentration)) was 12.5 mg/L (≈ 32.6 µM); with Pseudomonas aeruginosa (ATCC2108, Table 13, Pseudomonas aeruginosa ATCC 2108, read-out: P. aeruginosa MIC (minimum inhibitory concentration)) it was 25 mg/L (≈ 65.2 µM); in the data set on Escherichia coli (ATCC2452, Table 13, Escherichia coli ATCC 2452, read-out: E. coli MIC (minimum inhibitory concentration)), 12.5 mg/L (≈ 32.6 µM); in [2] (ATCC 700221 / VRE, Table 13, Vancomycin-resistant Enterococcus faecium ATCC 700221, read-out: VRE MIC (minimum inhibitory concentration)), > 100 mg/L. For the same compound, the “C. albicans IC50” value in the data set on Candida albicans (setting [4]) is >100 mg/L. In addition, the “VRE IC50” value in data set [2] (setting [4]) was >100 mg/L. The “C. neoformans IC50” value in the data set with Cryptococcus neoformans (setting [4]) is >100 mg/L.
